In patent US9867833B2, “Serine/threonine kinase inhibitors” (GENENTECH, INC., priority 2013, dated 2018):

Target: human ERK-2 (Mitogen Activated Kinase 1) (Homo sapiens (Human), UniProt P28482)
Assay: ERK-2 Enzymatic Assay
Type: biochemical
Details: human ERK-2 enzyme 5 nM, 25 μM ATP, S/T17 peptide substrate; isomer = configuration of CR2R3
Experimental: Compounds were tested in an enzymatic assay using human ERK-2 (Mitogen Activated Kinase 1), recombinantly expressed as an n-terminal 6-His fusion protein in E. coli and corresponding to aa 8-360. […] Test compounds were diluted in DMSO in 3-fold serial dilutions at 100× final concentrations. […] The data collected from each well was fit to a straight line, and the resulting rates were used to calculate percent of control. Percent of control was plotted against compound concentration, and IC50 values were determined using a four-parameter fit.

Sequence of human ERK-2 (Mitogen Activated Kinase 1) (P28482 8-360): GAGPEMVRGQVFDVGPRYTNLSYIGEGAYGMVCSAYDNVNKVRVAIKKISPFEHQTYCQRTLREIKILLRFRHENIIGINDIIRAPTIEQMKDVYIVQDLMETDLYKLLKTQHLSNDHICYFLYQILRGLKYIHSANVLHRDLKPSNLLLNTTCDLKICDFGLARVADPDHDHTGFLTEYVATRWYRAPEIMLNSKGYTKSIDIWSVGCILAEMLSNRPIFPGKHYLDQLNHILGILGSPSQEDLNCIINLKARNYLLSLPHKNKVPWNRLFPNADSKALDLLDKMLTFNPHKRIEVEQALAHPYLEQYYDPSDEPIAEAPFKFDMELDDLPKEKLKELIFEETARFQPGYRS

IC50 [nM] | Compound
0.102 | CN1C(=O)C[C@@H](Cc2ccc(Cl)cn2)c2nnc3cc(-c4ccnc(Nc5ccnn5C)n4)cc1n23 [(R) I-84, 9-((5-chloropyridin-2-yl)methyl)-6-methyl-4-(2-((1-methyl-1H-pyrazol-5-yl)amino)pyrimidin-4-yl)-8,9-dihydro-1,2,2a^1,6-tetraazabenzo[cd]azulen-7(6H)-one]
< 0.02 | Cn1nccc1Nc1nccc(-c2cc3n4c(nnc4c2)[C@@H](Oc2cncc(Cl)c2)CCO3)n1 [(S) I-77, 4-(9-((5-chloropyridin-3-yl)oxy)-8,9-dihydro-7H-6-oxa-1,2,2a^1-triazabenzo[cd]azulen-4-yl)-N-(1-methyl-1H-pyrazol-5-yl)pyrimidin-2-amine]
4.34 | Cn1nccc1Nc1cc(-c2cc3n4c(nnc4c2)[C@H](Cc2ccccc2)CO3)ccn1 [(S) I-38, 4-(3-benzyl-3,4-dihydro-5-oxa-1,2,2a^1-triazaacenaphthylen-7-yl)-N-(1-methyl-1H-pyrazol-5-yl)pyridin-2-amine]
5 | Cn1nccc1Nc1nccc(-c2cc3n4c(nnc4c2)[C@H](Cc2ccc(F)cc2)CO3)n1 [(S) I-44, 4-(3-(4-fluorobenzyl)-3,4-dihydro-5-oxa-1,2,2a^1-triazaacenaphthylen-7-yl)-N-(1-methyl-1H-pyrazol-5-yl)pyrimidin-2-amine]
0.311 | Cn1nccc1Nc1nccc(-c2cc3n4c(nnc4c2)[C@@H](Cc2ccc(F)cc2)CCO3)n1 [(S) I-58, 4-(9-(4-fluorobenzyl)-8,9-dihydro-7H-6-oxa-1,2,2a^1-triazabenzo[cd]azulen-4-yl)-N-(1-methyl-1H-pyrazol-5-yl)pyrimidin-2-amine]
< 0.02 | Cn1nccc1Nc1cc(-c2cc3n4c(ncc4c2)[C@@H](Cc2ccc(Cl)cc2)CN3)ccn1 [(S) I-8, 4-(3-(4-chlorobenzyl)-4,5-dihydro-3H-1,2,2a^1,5-tetraazaacenaphthylen-7-yl)-N-(1-methyl-1H-pyrazol-5-yl)pyridin-2-amine]
0.038 | CCCC1COc2cc(-c3ccnc(Nc4ccnn4C)n3)cc3nnc1n23 (single isomer, unassigned) [(R) I-101, N-(1-methyl-1H-pyrazol-5-yl)-4-(3-propyl-3,4-dihydro-5-oxa-1,2,2a^1-triazaacenaphthylen-7-yl)pyrimidin-2-amine]
< 0.02 | Cn1nccc1Nc1nccc(-c2cc3n4c(nnc4c2)[C@@H](Cc2ccc(F)cc2)CN3)n1 [(S) I-21, 4-(3-(4-fluorobenzyl)-4,5-dihydro-3H-1,2,2a^1,5-tetraazaacenaphthylen-7-yl)-N-(1-methyl-1H-pyrazol-5-yl)pyrimidin-2-amine]
< 0.02 | CN1C(=O)C[C@H](Cc2ccc(Cl)cc2)c2nnc3cc(-c4ccnc(Nc5ccnn5C)c4)cc1n23 [(S) I-40, 9-(4-chlorobenzyl)-6-methyl-4-(2-((1-methyl-1H-pyrazol-5-yl)amino)pyridin-4-yl)-8,9-dihydro-1,2,2a^1,6-tetraazabenzo[cd]azulen-7(6H)-one]
6.94 | CC(C)[C@H]1CC(=O)N(C)c2cc(-c3ccnc(Nc4ccnn4C)c3)cc3nnc1n23 [(R) I-87, 9-isopropyl-6-methyl-4-(2-((1-methyl-1H-pyrazol-5-yl)amino)pyridin-4-yl)-8,9-dihydro-1,2,2a^1,6-tetraazabenzo[cd]azulen-7(6H)-one]
< 0.02 | Cn1nccc1Nc1cc(-c2cc3n4c(nnc4c2)[C@@H](Cc2ccccc2Cl)CCO3)ccn1 [(S) I-30, 4-(9-(2-chlorobenzyl)-8,9-dihydro-7H-6-oxa-1,2,2a^1-triazabenzo[cd]azulen-4-yl)-N-(1-methyl-1H-pyrazol-5-yl)pyridin-2-amine]
0.02 | Cn1nccc1Nc1cc(-c2cc3n4c(nnc4c2)[C@@H](Cc2ccccc2)CO3)ccn1 [(R) I-38, 4-(3-benzyl-3,4-dihydro-5-oxa-1,2,2a^1-triazaacenaphthylen-7-yl)-N-(1-methyl-1H-pyrazol-5-yl)pyridin-2-amine]
< 0.02 | Cn1nccc1Nc1nccc(-c2cc3n4c(nnc4c2)[C@H](Cc2ccc(F)cc2)CCO3)n1 [(R) I-58, 4-(9-(4-fluorobenzyl)-8,9-dihydro-7H-6-oxa-1,2,2a^1-triazabenzo[cd]azulen-4-yl)-N-(1-methyl-1H-pyrazol-5-yl)pyrimidin-2-amine]
0.02 | CN1C(=O)N(Cc2ccccc2)c2nnc3cc(-c4ccnc(Nc5ccnn5C)n4)cc1n23 [Compound I-28, 3-benzyl-5-methyl-7-(2-((1-methyl-1H-pyrazol-5-yl)amino)pyrimidin-4-yl)-3H-1,2,2a^1,3,5-pentaazaacenaphthylen-4(5H)-one]
0.38 | Cn1nccc1Nc1nccc(-c2cc3n4c(nnc4c2)[C@H](Cc2ccccc2)CN3)n1 [(R) I-2, (R)-4-(3-benzyl-4,5-dihydro-3H-1,2,2a^1,5-tetraazaacenaphthylen-7-yl)-N-(1-methyl-1H-pyrazol-5-yl)pyrimidin-2-amine]
0.6 | Cn1nccc1Nc1nccc(-c2cc3n4c(nnc4c2)[C@@H](Cc2ccc(F)c(Cl)c2)CO3)n1 [(R) I-82, 4-(3-(3-chloro-4-fluorobenzyl)-3,4-dihydro-5-oxa-1,2,2a^1-triazaacenaphthylen-7-yl)-N-(1-methyl-1H-pyrazol-5-yl)pyrimidin-2-amine]
< 0.02 | Cn1nccc1Nc1cc(-c2cc3n4c(nnc4c2)[C@@H](c2ccccc2)CN3)ccn1 (single isomer, unassigned) [(S) I-4, N-(1-methyl-1H-pyrazol-5-yl)-4-(3-phenyl-4,5-dihydro-3H-1,2,2a^1,5-tetraazaacenaphthylen-7-yl)pyridin-2-amine]
< 0.02 | Cn1nccc1Nc1nccc(-c2cc3n4c(nnc4c2)C(Cn2cc(C(F)(F)F)cn2)CCO3)n1 (stereo not drawn) [Compound I-73, N-(1-methyl-1H-pyrazol-5-yl)-4-(9-((4-(trifluoromethyl)-1H-pyrazol-1-yl)methyl)-8,9-dihydro-7H-6-oxa-1,2,2a^1-triazabenzo[cd]azulen-4-yl)pyrimidin-2-amine]
32.7 | CN1C(=O)C[C@H](Cc2ccc(Cl)cn2)c2nnc3cc(-c4ccnc(Nc5ccnn5C)n4)cc1n23 [(S) I-84, 9-((5-chloropyridin-2-yl)methyl)-6-methyl-4-(2-((1-methyl-1H-pyrazol-5-yl)amino)pyrimidin-4-yl)-8,9-dihydro-1,2,2a^1,6-tetraazabenzo[cd]azulen-7(6H)-one]
0.0441 | Cn1nccc1Nc1nccc(-c2cc3n4c(nnc4c2)[C@H](Cc2ccc(Cl)c(F)c2)CN3)n1 [(R) I-14, 4-(3-(4-chloro-3-fluorobenzyl)-4,5-dihydro-3H-1,2,2a^1,5-tetraazaacenaphthylen-7-yl)-N-(1-methyl-1H-pyrazol-5-yl)pyrimidin-2-amine]
0.02 | Cn1nccc1Nc1nccc(-c2cc3n4c(nnc4c2)[C@@H](Cc2ccccc2)CO3)n1 [(R) I-15, 4-(3-benzyl-3,4-dihydro-5-oxa-1,2,2a^1-triazaacenaphthylen-7-yl)-N-(1-methyl-1H-pyrazol-5-yl)pyrimidin-2-amine]
1.33 | COc1ncccc1C[C@H]1CN(C)c2cc(-c3ccnc(Nc4ccnn4C)n3)cc3nnc1n23 [(S) I-43, 4-(3-((2-methoxypyridin-3-yl)methyl)-5-methyl-4,5-dihydro-3H-1,2,2a^1,5-tetraazaacenaphthylen-7-yl)-N-(1-methyl-1H-pyrazol-5-yl)pyrimidin-2-amine]
17 | CN1C(=O)CC(Cc2ccc(F)cc2)c2nnc3cc(-c4ccnc(Nc5ccnn5C)n4)cc1n23 (stereo not drawn) [Compound I-79, 9-(4-fluorobenzyl)-6-methyl-4-(2-((1-methyl-1H-pyrazol-5-yl)amino)pyrimidin-4-yl)-8,9-dihydro-1,2,2a^1,6-tetraazabenzo[cd]azulen-7(6H)-one]
1.39 | Cn1nccc1Nc1nccc(-c2cc3n4c(nnc4c2)[C@H](Cn2cc(C4CC4)cn2)CCO3)n1 [(S) I-56, 4-(9-((4-cyclopropyl-1H-pyrazol-1-yl)methyl)-8,9-dihydro-7H-6-oxa-1,2,2a^1-triazabenzo[cd]azulen-4-yl)-N-(1-methyl-1H-pyrazol-5-yl)pyrimidin-2-amine]
2.24 | Cn1nccc1Nc1nccc(-c2cc3n4c(nnc4c2)[C@H](Cc2ccccc2)CO3)n1 [(S) I-15, 4-(3-benzyl-3,4-dihydro-5-oxa-1,2,2a^1-triazaacenaphthylen-7-yl)-N-(1-methyl-1H-pyrazol-5-yl)pyrimidin-2-amine]
0.023 | CN1C(=O)N[C@H](Cc2ccc(Cl)cc2)c2nnc3cc(-c4ccnc(Nc5ccnn5C)n4)cc1n23 [Compound I-6, (R)-9-(4-chlorobenzyl)-6-methyl-4-(2-((1-methyl-1H-pyrazol-5-yl)amino)pyrimidin-4-yl)-8,9-dihydro-1,2,2a^1,6,8-pentaazabenzo[cd]azulen-7(6H)-one]
0.025 | Cn1nccc1Nc1nccc(-c2cc3n4c(nnc4c2)[C@@H](CCC(F)(F)F)CCO3)n1 [(S) I-102, N-(1-methyl-1H-pyrazol-5-yl)-4-(9-(3,3,3-trifluoropropyl)-8,9-dihydro-7H-6-oxa-1,2,2a^1-triazabenzo[cd]azulen-4-yl)pyrimidin-2-amine]
< 0.02 | CCC(C)CC1COc2cc(-c3ccnc(Nc4ccnn4C)n3)cc3nnc1n23 (single isomer, unassigned) [(R) I-52, N-(1-methyl-1H-pyrazol-5-yl)-4-(3-(2-methylbutyl)-3,4-dihydro-5-oxa-1,2,2a^1-triazaacenaphthylen-7-yl)pyrimidin-2-amine]
12.3 | Cn1nccc1Nc1cc(-c2cc3n4c(nnc4c2)[C@H](Cc2ccc(Cl)cc2)CO3)ccn1 [(S) I-48, 4-(3-(4-chlorobenzyl)-3,4-dihydro-5-oxa-1,2,2a^1-triazaacenaphthylen-7-yl)-N-(1-methyl-1H-pyrazol-5-yl)pyridin-2-amine]
< 0.02 | Cn1nccc1Nc1nccc(-c2cc3n4c(nnc4c2)[C@@H](Cc2ccc(F)cc2)CO3)n1 [(R) I-44, 4-(3-(4-fluorobenzyl)-3,4-dihydro-5-oxa-1,2,2a^1-triazaacenaphthylen-7-yl)-N-(1-methyl-1H-pyrazol-5-yl)pyrimidin-2-amine]
